Tests used:
[1] = tested on: Human immunodeficiency virus 1; assay: Antiviral activity against HIV-1 harboring reverse transcriptase K103N mutant infected in human MT4 cells assessed as inhibition of virus-induced cytopathic effect after 5 days by MTT assay; format: functional, organism-based; conditions: Human immunodeficiency virus 1, MT4, 120 h
[2] = tested on: Human immunodeficiency virus 1; assay: Antiviral activity against HIV 1 harboring reverse transcriptase Y181C mutant infected in human MT4 cells assessed as inhibition of virus-induced cytopathic effect after 5 days by MTT assay; format: functional, organism-based; conditions: Human immunodeficiency virus 1, MT4, 120 h
[3] = tested on: Human immunodeficiency virus 1; assay: Antiviral activity against HIV-1 harboring reverse transcriptase K103N/Y181C double mutant infected in human MT4 cells assessed as inhibition of virus-induced cytopathic effect after 5 days by MTT assay; format: functional, organism-based; conditions: Human immunodeficiency virus 1, MT4, 120 h
[4] = Cytotoxicity against human MT4 cells assessed as reduction in cell viability after 5 days by MTT assay; format: cell-based
[5] = tested on: Human immunodeficiency virus 1; assay: Antiviral activity against HIV-1 IRLL98 harboring reverse transcriptase M41L, D67N, Y181C, M184V, R211K, and T215Y mutants infected in human MT4 cells assessed as inhibition of virus-induced cytopathic effect after 5 days by MTT assay; format: functional, organism-based; conditions: Human immunodeficiency virus 1, IRLL98, MT4, 120 h
[6] = tested on: Human immunodeficiency virus type 1 reverse transcriptase (Human immunodeficiency virus 1), Q72547 [L100I]
[7] = biological target: Human immunodeficiency virus type 1 reverse transcriptase (Human immunodeficiency virus 1) (UniProt Q72547)
Description: Inhibition of recombinant wild type HIV-1 His-tagged reverse transcriptase p66/p51 expressed in Escherichia coli assessed as reduction in [3H]dTTP incorporation using poly(rA)/oligo(dT) as template/primer after 20 mins by scintillation counting analysis

[8] = tested on: Human immunodeficiency virus 1; assay: Resistance index, ratio of EC50 for HIV-1 harboring reverse transcriptase Y181C mutant to EC50 for wild type HIV-1 NL4-3; format: functional
[9] = Therapeutic index, ratio of CC50 for human MT4 cells to EC50 for HIV-1 NL4-3 infected in human MT4 cells; format: toxicity, cell-based; conditions: read-out: Ratio CC50/EC50
[10] = tested on: Human immunodeficiency virus 1; assay: Resistance index, ratio of EC50 for HIV-1 IRLL98 harboring reverse transcriptase M41L, D67N, Y181C, M184V, R211K, and T215Y mutants to EC50 for wild type HIV-1 NL4-3; format: functional
[11] = tested on: Human immunodeficiency virus type 1 reverse transcriptase (Human immunodeficiency virus 1), Q72547 [K103N]
Description: Inhibition of recombinant HIV-1 His-tagged reverse transcriptase p66/p51 K103N mutant expressed in Escherichia coli assessed as reduction in [3H]dTTP incorporation using poly(rA)/oligo(dT) as template/primer after 20 mins by scintillation counting analysis

[12] = tested on: Human immunodeficiency virus 1; assay: Antiviral activity against HIV-1 harboring reverse transcriptase Y188L mutant infected in human MT4 cells assessed as inhibition of virus-induced cytopathic effect after 5 days by MTT assay; format: functional, organism-based; conditions: Human immunodeficiency virus 1, MT4, 120 h
[13] = tested on: Human immunodeficiency virus 1; assay: Resistance index, ratio of ID50 for recombinant HIV-1 His-tagged reverse transcriptase p66/p51 L100I mutant to ID50 for recombinant wild type HIV-1 reverse transcriptase His-tagged p66/p51
[14] = tested on: Human immunodeficiency virus type 1 reverse transcriptase (Human immunodeficiency virus 1), Q72547 [Y181I]
[15] = tested on: Human immunodeficiency virus 1; assay: Resistance index, ratio of ID50 for recombinant HIV-1 His-tagged reverse transcriptase p66/p51 Y181I mutant to ID50 for recombinant wild type HIV-1 reverse transcriptase His-tagged p66/p51
[16] = tested on: Human immunodeficiency virus 1; assay: Resistance index, ratio of ID50 for recombinant HIV-1 His-tagged reverse transcriptase p66/p51 K103N mutant to ID50 for recombinant wild type HIV-1 reverse transcriptase His-tagged p66/p51
[17] = tested on: Human immunodeficiency virus 1; assay: Resistance index, ratio of EC50 for HIV-1 harboring reverse transcriptase K103N mutant to EC50 for wild type HIV-1 NL4-3; format: functional
[18] = tested on: Human immunodeficiency virus 1; assay: Antiviral activity against wild type HIV 1 NL4-3 infected in human MT4 cells assessed as inhibition of virus-induced cytopathic effect after 5 days by MTT assay; format: functional, organism-based; conditions: Human immunodeficiency virus 1, NL4-3, MT4, 120 h
[19] = tested on: Human immunodeficiency virus 1; assay: Resistance index, ratio of EC50 for HIV-1 harboring reverse transcriptase Y188L mutant to EC50 for wild type HIV-1 NL4-3; format: functional

| SMILES | EC50 [1] [nM] | EC50 [2] [nM] | EC50 [3] [nM] | CC50 at 120 h [4] [nM] | EC50 [5] [nM] | ID50 [6] [nM] | ID50 [7] [nM] | Ratio EC50 [8] | selectivity ratio [9] | Ratio EC50 [10] | ID50 [11] [nM] | EC50 [12] [nM] | Ratio [13] | ID50 [14] [nM] | Ratio [15] | Ratio [16] | Ratio EC50 [17] | EC50 [18] [nM] | Ratio EC50 [19] |
| --- | --- | --- | --- | --- | --- | --- | --- | --- | --- | --- | --- | --- | --- | --- | --- | --- | --- | --- | --- |
| O=C1Nc2ccc(Cl)cc2[C@@](C#CC2CC2)(C(F)(F)F)O1 [EFAVIRENZ] | 390 | 44 | 400 | > 3000 | 630 |  |  |  |  |  |  |  |  |  |  |  |  |  |  |
| CCC(c1nc(SC2CCCC2)[nH]c(=O)c1C)c1c(F)cccc1F (configuration not stated) |  |  |  | 30000 | 750 | 110 | 5 | 100 | 2730 | 68 | 380 |  |  |  |  |  |  |  |  |
| CCCNc1nc(C(C)c2c(F)cccc2F)c(C)c(=O)[nH]1 (configuration not stated) |  | 60 |  | 35000 | 90 | 310 | 40 | 20 | 11700 | 30 | 470 | > 10000 | 8 | 5020 | 125 | 12 |  |  |  |
| CCC(C)Sc1nc(C(OC)c2c(F)cccc2F)c(C)c(=O)[nH]1 (configuration not stated) | 1600 | 370 |  | 27200 | 240 | 280 | 3 | 41 | 3020 | 27 | 1500 | 2800 | 93 | 5400 | 1800 | 500 | 178 | 9 | 311 |
| COC(c1nc(NC(C)C)[nH]c(=O)c1C)c1c(F)cccc1F (configuration not stated) | 230 | 140 |  | > 81400 | 70 | 1100 | 57 | 10 | > 5810 | 5 | 620 | 6600 | 19 | 1900 | 33 | 11 | 16 | 14 | 471 |
| CCCNc1nc(C(OC)c2c(F)cccc2F)c(C)c(=O)[nH]1 (configuration not stated) | 32 | 98 |  | 81400 | 16 | 980 | 40 | 20 | 16300 | 3 | 220 | 3500 | 24 | 1700 | 42 | 5 | 6 | 5 | 700 |
| Cc1c(C(C)c2c(F)cccc2F)nc(SC2CCCC2)[nH]c1=O (configuration not stated) | 230 |  |  | > 3000 | 120 | 300 | 5 | 100 | > 3000 | 120 | 300 |  | 60 | 900 | 180 | 60 |  | 1 |  |
| Cc1c(C(C)c2c(F)cccc2F)nc(NC(C)C)[nH]c1=O (configuration not stated) | 890 | 350 |  | 200000 | 150 | 250 | 35 | 17 | 10000 | 7 | 400 | > 10000 | 7 | 3520 | 101 | 11 | 44 | 20 |  |
| CCC(C)Sc1nc(O)c(C)c(C(C)c2c(F)cccc2F)n1 (configuration not stated) |  |  |  | > 3000 | 79 | 670 | 31 |  | > 3330 | 88 | 1700 |  |  |  |  |  |  |  |  |
| CCCN(C)c1nc(C(C)c2c(F)cccc2F)c(C)c(=O)[nH]1 (configuration not stated) | 16 | 17 |  | > 78000 | 7 |  |  | 9 | > 41000 | 4 |  | 49 | 6 |  | 40 | 6 | 9 | 1.9 | 26 |
| COC(c1nc(SC(C)C)[nH]c(=O)c1C)c1c(F)cccc1F (configuration not stated) | 1100 | 560 |  | > 25000 | 520 | 570 | 8 | 33 | > 1470 | 31 | 130 | 2900 | 71 | 9100 | 1140 | 16 | 65 | 17 | 171 |
| CCC(C)Sc1nc(C(CC)c2c(F)cccc2F)c(C)c(=O)[nH]1 (configuration not stated) |  |  |  | > 3000 | 150 | 48 | 6 |  | > 3750 | 187 | 140 |  |  |  |  |  |  |  |  |
| Cc1ccnc2c1NC(=O)c1cccnc1N2C1CC1 [NEVIRAPINE] |  |  | > 7000 | > 7000 |  | 8500 to 9000 |  |  |  |  |  | > 7000 |  | 33000 to 35000 |  |  |  |  |  |
| COC(c1nc(SC2CCCC2)[nH]c(=O)c1C)c1c(F)cccc1F (configuration not stated) | 2800 | 2700 |  | 34300 | 840 | 910 | 14 | 93 |  | 29 | 260 | 3200 | 65 | 570 | 41 | 19 | 97 | 29 | 110 |
| CO[C@@H](c1nc(SC(C)C)[nH]c(=O)c1C)c1c(F)cccc1Cl | 0.6 | 0.9 |  | > 65000 |  | 400 | 2 | 10 | > 722000 |  | 35 | 1 | 200 | 1100 | 550 | 17 | 10 | 0.09 | 11 |
| Cc1c(C(C)c2c(F)cccc2Cl)nc(SC2CCCC2)[nH]c1=O (configuration not stated) |  |  |  | > 15000 | 68 | 120 | 11 |  | > 500000 | 2267 | 1300 |  |  |  |  |  |  |  |  |
| CCC(c1nc(SC(C)C)[nH]c(=O)c1C)c1c(F)cccc1F (configuration not stated) |  |  |  | > 30000 | 280 | 210 | 4 |  | > 7500 | 70 | 310 |  |  |  |  |  |  |  |  |
| COC(c1nc(NC(C)C)[nH]c(=O)c1C)c1c(F)cccc1Cl (configuration not stated) | 620 | 1400 |  | > 77400 |  | 1900 | 110 | 48 | > 2670 |  | 1600 | 8500 | 17 | 3200 | 29 | 14 | 21 | 29 | 293 |
| Cc1cc(C)c(Nc2ccnc(Nc3ccc(C#N)cc3)n2)c(C)c1 [DAPIVIRINE] | 2.2 |  |  |  | 6 |  |  |  |  |  |  |  |  |  |  |  |  | 0.6 |  |
| COC(c1nc(SC2CCCC2)[nH]c(=O)c1C)c1c(F)cccc1Cl (configuration not stated) | 70 | 160 |  | 36800 | 12 | 2300 | 7 | 229 | 52600 | 17 | 150 | 860 | 329 | 3800 | 543 | 21 | 100 | 0.7 | 1229 |
| Cc1c(O)nc(SC(C)C)nc1C(C)c1c(F)cccc1F (configuration not stated) |  |  |  |  | 145 | 280 | 3 |  |  | 145 | 580 |  |  |  |  |  |  |  |  |
